According to patent US20100279327A1, “METHOD OF TREATING DISEASES WITH PARP INHIBITORS” (BiPar Sciences, Inc., priority 2006, published 2010):

Tested on: PARP1 (poly (ADP-ribose) polymerase family, member 1)
Assay: PARP1 mRNA expression, Affymetrix human genome GeneChip (probe set 208644_at), Diff/X and e-Northern
Conditions: Normal; for PARP1 expression, Experiment Mean: patients taking the medication, signal intensity of 208644_at; for PARP1 Fold change (FC): patients taking vs patients not taking the medication
Description: GeneChip arrays have been widely used for monitoring mRNA expression in many areas of biomedical research. The high-density oligonucleotide array technology allows researchers to monitor tens of thousands of genes in a single hybridization experiment as they are expressed differently in tissues and cells. The expression profile of a mRNA molecule of a gene is obtained by the combined intensity information from probes in a probe set, which consists of 11-20 probe pairs of oligonucleotides of 25 by in length, interrogating a different part of the sequence of a gene.
The gene expressions were assessed using the Affymetrix human genome genechips (45,000 gene transcripts covering 28,473 UniGene clusters). Approximately 5 μg total RNA from each sample were labeled using high yield transcript labeling kit and labeled RNAs were hybridized, washed, and scanned according to manufacturer's specifications (Affymetrix, Inc., Santa Clara, Calif.). Affymetrix Microarray Suite 5.0 software (MASS) was used to estimate transcript signal levels from scanned images (Affymetrix). The signals on each array were normalized to a trimmed mean value of 500, excluding lowest 2% and highest 2% of the signals. An Affymetrix probe set representing a unique Genbank sequence is referred as a probe or gene hereafter for convenience. To verify any errors in the expressions caused by image defects, the correlation coefficient of each array to an idealized distribution was determined where the idealized distribution is mean of all arrays. The genes are filtered from the remaining arrays using detection P value reported by MASS. The genes having P>0.065 in 95% of the arrays are eliminated and all other signals are included for statistical comparisons of classes.
The PARP1 gene is represented on the HG-U133A array by a single probe set with the identifier W208644_at”. All results in this report were generated based on the MASS expression signal intensities for this probe set and will be referred to as “PARP1”.
The PARP1 gene is represented on the HG-U133A array by a single probe set with the identifier “208644_at”. All results in this report were generated based on the MASS expression signal intensities for this probe set and will be referred to as “PARP1”. In addition, the seven genes, BRCA1, BRCA2, RAD51, MRE11, p53, PARP2 and MUCIN 16, are represented on the HG-U133A/B array set by 11 informative probe sets. Three probe sets were excluded from this analysis because they were considered to be non-responsive on the array.
RNA is evaluated for quality and integrity (via Agilent Bioanalyzer derived […] ratio and RNA integrity number (RIN)), purity (via absorbance ratio at A260/A280), and quantity (via absorbance at A260 or alternative assay (i.e. ribogreen)), Quantity and purity of cRNA synthesis product is assessed using UV absorbance. Quality of cRNA synthesis is assessed using either the Agilent Bioanalyzer or a MOPS agarose gel. Array quality is evaluated using a proprietary high throughput application by which arrays are evaluated against several strict objective standards such as 5′/3′ GAPDH ratio, signal/noise ratio. and background as well as over thirty additional metrics (e.g. outlier, vertical variance). Data generated throughout the process is managed within the quality system to ensure data integrity of the data.
23, 122, and 57 pathologically normal tissue samples were used to determine baseline expression of the PARP1 gene in endometroid, lung, and prostate tissue, respectively. The mean and 90%, 95%, 99%, and 99.9% upper confidence limits for an individual predicted value (UCLs) were calculated. Because we are assessing the likelihood that individual samples external to the normal set are within the baseline distribution, the prediction interval, rather than the confidence interval for the mean, was selected to estimate the expected range for future individual measurements. […]

[1] = Superior Temporal Gyrus (Brodmann Area 22)
[2] = Stomach, positive = up-regulated, negative = down-regulated

Molecule | PARP1 expression, Experiment Mean (Stomach) | PARP1 Fold change (FC) [2] | also measured
CC(=O)Nc1ccc(O)cc1 [Acetaminophen] | – | – | PARP1 expression, Experiment Mean [1]: 290.49; PARP1 Fold change (FC) [1]: 1.28
CC(C)c1c(C(=O)Nc2ccccc2)c(-c2ccccc2)c(-c2ccc(F)cc2)n1CC[C@@H](O)C[C@@H](O)CC(=O)O [Atorvastatin] | 176.85 | −1.24 | –
CC(C)NCC(O)COc1ccc(CC(N)=O)cc1 (centres unmarked) [Atenolol] | – | – | PARP1 expression, Experiment Mean (Ovary): 138.57; PARP1 Fold change (FC) (Ovary, negative = down-regulated): −1.22
Estrogens | 228.75 | 1.27 | –
